US20250195521A1 (Revolution Medicines, Inc., priority 2020, published 2025)

What was measured:
[1] = target: KRAS WT binding to BRAF RBD (Homo sapiens (Human), UniProt P01116+P62937); assay: Ras-Raf disruption/FRET/MOA assay, KRAS WT; type: biochemical
Source text: Disruption of B-Raf Ras-binding Domain (BRAF^RBD) Interaction with K-Ras by Compounds of the Invention (also called a FRET assay or an MOA assay)
(§1) Note—The following protocol describes a procedure for monitoring disruption of K-Ras G12C(GMP-PNP) binding to BRAF^RBD by a compound of the invention. This protocol may also be executed substituting other Ras proteins or nucleotides.
(§2) The purpose of this biochemical assay was to measure the ability of test compounds to facilitate ternary complex formation between a nucleotide-loaded K-Ras isoform and Cyclophilin A; the resulting ternary complex disrupts binding to a BRAF^RBD construct, inhibiting K-Ras signaling through a RAF effector. Data is reported as IC50 values.
(§3) In assay buffer containing 25 mM HEPES pH 7.3, 0.002% Tween20, 0.1% BSA, 100 mM NaCl and 5 mM MgCl2, tagless Cyclophilin A, His6-K-Ras-GMPPNP, and GST-BRAF^RBD were combined in a 384-well assay plate at final concentrations of 25 μM, 12.5 nM and 50 nM, respectively. Compound was present in plate wells as a 10-point 3-fold dilution series starting at a final concentration of 30 μM. After incubation at 25° C. for 3 hours, a mixture of Anti-His Eu—W1024 and anti-GST allophycocyanin was then added to assay sample wells at final concentrations of 10 nM and 50 nM, respectively, and the reaction incubated for an additional 1.5 hours. […] Compounds that facilitate disruption of a K-Ras: RAF complex were identified as those eliciting a decrease in the TR-FRET ratio relative to DMSO control wells.

[2] = target: NRAS Q61R binding to BRAF RBD (Homo sapiens (Human), UniProt P01111+P62937, Q61R); assay: Ras-Raf disruption/FRET/MOA assay, NRAS Q61R; type: biochemical
NRAS Q61R binding to BRAF RBD, sequence (P01111 whole entry Q61R): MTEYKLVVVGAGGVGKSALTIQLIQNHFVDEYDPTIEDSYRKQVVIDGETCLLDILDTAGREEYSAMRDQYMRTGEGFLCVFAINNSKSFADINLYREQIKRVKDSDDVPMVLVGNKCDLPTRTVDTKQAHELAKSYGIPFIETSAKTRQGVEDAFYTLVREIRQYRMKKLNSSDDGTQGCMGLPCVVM
NRAS Q61R binding to BRAF RBD, sequence (P62937 whole entry): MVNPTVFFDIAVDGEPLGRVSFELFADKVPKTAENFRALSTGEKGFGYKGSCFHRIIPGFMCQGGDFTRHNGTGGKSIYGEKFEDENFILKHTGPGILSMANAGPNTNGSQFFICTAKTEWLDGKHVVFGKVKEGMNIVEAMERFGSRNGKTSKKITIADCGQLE
In short: (§4)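 TR-FRET disruption assay: His6-tagged GMPPNP-loaded Ras (12.5 nM), GST-BRAF RBD (50 nM) and Cyclophilin A (25 μM) incubated with compound (10-point 3-fold series from 30 μM) 3 h at 25°C in HEPES pH 7.3 buffer with MgCl2 and NaCl. Anti-His Eu (10 nM)/anti-GST APC (50 nM) added, 1.5 h more; IC50 from FRET-ratio decrease versus DMSO.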

[3] = target: K-Ras G12C(GMP-PNP) binding to BRAF RBD (Homo sapiens (Human), UniProt P01116+P62937, G12C); assay: Disruption of BRAF RBD interaction with K-Ras (FRET / MOA assay), K-Ras G12C; type: biochemical; details: read-out: KRAS G12C FRET IC50
K-Ras G12C(GMP-PNP) binding to BRAF RBD, sequence (P01116 other isoform, or with tags, fused parts or gaps G12C): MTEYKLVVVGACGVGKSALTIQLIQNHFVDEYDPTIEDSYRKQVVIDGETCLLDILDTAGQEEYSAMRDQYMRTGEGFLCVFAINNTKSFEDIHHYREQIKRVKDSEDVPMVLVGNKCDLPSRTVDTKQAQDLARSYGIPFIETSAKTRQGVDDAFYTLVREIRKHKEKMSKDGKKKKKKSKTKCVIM
K-Ras G12C(GMP-PNP) binding to BRAF RBD, sequence (P62937 whole entry): as the sequence (P62937 whole entry) above
In short: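 TR-FRET readout: after 3 h compound incubation at 25 °C, anti-His Eu and anti-GST allophycocyanin (10 and 50 nM final) added for a further 1.5 h. Dilution series was 10-point, 3-fold, top 30 μM final. Ras–cyclophilin A ternary complex formation blocks the BRAF RBD interaction; IC50 derived from reduced FRET ratio relative to DMSO.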

[4] = target: KRAS G12S binding to BRAF RBD (Homo sapiens (Human), UniProt P01116+P62937, G12S); assay: Ras-Raf disruption/FRET/MOA assay, KRAS G12S; type: biochemical
KRAS G12S binding to BRAF RBD, sequence (P01116 other isoform, or with tags, fused parts or gaps G12S): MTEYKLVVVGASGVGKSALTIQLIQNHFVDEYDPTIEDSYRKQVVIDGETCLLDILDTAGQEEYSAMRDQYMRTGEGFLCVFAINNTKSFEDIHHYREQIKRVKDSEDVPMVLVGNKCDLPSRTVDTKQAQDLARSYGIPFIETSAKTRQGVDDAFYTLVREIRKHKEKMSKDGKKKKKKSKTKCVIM
KRAS G12S binding to BRAF RBD, sequence (P62937 whole entry): as the sequence (P62937 whole entry) above
Source text: as §1, §2
as §3, with “Compound” for “In assay buffer containing 25 mM HEPES pH 7.3, 0.002% Tween20, 0.1% BSA, 100 mM NaCl and 5 mM MgCl2, tagless Cyclophilin A, His6-K-Ras-GMPPNP, and GST-BRAF^RBD were combined in a 384-well assay plate at final concentrations of 25 μM, 12.5 nM and 50 nM, respectively. Compound”

NCI-H358 (K-Ras G12C) = assay: CellTiter-Glo cell viability assay, NCI-H358; type: cell-based, human; details: Homo sapiens, NCI-H358, 120 h, 5-day treatment; read-out: H358 Cell Viability assay data (K-Ras G12C, IC50)
In short: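 Cells seeded, compound added directly to plates; day 5: plates to RT ~30 min, CellTiter-Glo luminescence; (sample/avg DMSO)*100; 4-parameter fit.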

[5] = target: KRAS G13D binding to BRAF RBD (Homo sapiens (Human), UniProt P01116+P62937, G13D); assay: Ras-Raf disruption/FRET/MOA assay, KRAS G13D; type: biochemical
KRAS G13D binding to BRAF RBD, sequence (P01116 other isoform, or with tags, fused parts or gaps G13D): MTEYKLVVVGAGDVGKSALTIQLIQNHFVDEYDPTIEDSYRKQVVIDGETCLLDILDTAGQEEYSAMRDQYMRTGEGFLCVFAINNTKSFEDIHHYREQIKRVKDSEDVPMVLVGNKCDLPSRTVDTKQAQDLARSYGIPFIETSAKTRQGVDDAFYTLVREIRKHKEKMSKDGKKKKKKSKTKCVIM
KRAS G13D binding to BRAF RBD, sequence (P62937 whole entry): as the sequence (P62937 whole entry) above
In short: (§5)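 First, test compounds in a 10-point 3-fold series (30 μM final top) were incubated for 3 hours at 25° C with nucleotide-loaded Ras, cyclophilin A and a BRAF RBD construct. Next, Eu anti-His and allophycocyanin anti-GST detection reagents were added for 1.5 hours. Finally, IC50s were derived from loss of TR-FRET signal against DMSO.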

[6] = target: KRAS G12V binding to BRAF RBD (Homo sapiens (Human), UniProt P01116+P62937, G12V); assay: Ras-Raf disruption/FRET/MOA assay, KRAS G12V; type: biochemical; details: read-out: KRAS G12V FRET IC50
KRAS G12V binding to BRAF RBD, sequence (P01116 other isoform, or with tags, fused parts or gaps G12V): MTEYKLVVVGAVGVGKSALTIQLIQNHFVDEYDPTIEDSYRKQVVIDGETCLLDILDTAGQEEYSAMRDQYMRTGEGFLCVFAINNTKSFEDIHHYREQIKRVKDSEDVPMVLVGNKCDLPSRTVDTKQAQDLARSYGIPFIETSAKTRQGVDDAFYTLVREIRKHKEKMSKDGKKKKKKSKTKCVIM
KRAS G12V binding to BRAF RBD, sequence (P62937 whole entry): as the sequence (P62937 whole entry) above
Source text: as §1, §2
as §3, with “Compound” for “In assay buffer containing 25 mM HEPES pH 7.3, 0.002% Tween20, 0.1% BSA, 100 mM NaCl and 5 mM MgCl2, tagless Cyclophilin A, His6-K-Ras-GMPPNP, and GST-BRAF^RBD were combined in a 384-well assay plate at final concentrations of 25 μM, 12.5 nM and 50 nM, respectively. Compound”

[7] = target: NRAS Q61K binding to BRAF RBD (Homo sapiens (Human), UniProt P01111+P62937, Q61K); assay: Ras-Raf disruption/FRET/MOA assay, NRAS Q61K; type: biochemical
NRAS Q61K binding to BRAF RBD, sequence (P01111 whole entry Q61K): as the sequence (P01111 whole entry Q61R) above, with R61K counted along it
NRAS Q61K binding to BRAF RBD, sequence (P62937 whole entry): as the sequence (P62937 whole entry) above
In short: as §4

[8] = test system: K-Ras G12C (NCI-H358 cells); assay: Potency assay: pERK in NCI-H358 cells; type: cell-based, human; details: Homo sapiens; NCI-H358 cells, 4 hours; read-out: pERK EC50 (H358 KRAS G12C)
In short: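 Cells plated the day before were exposed for 4 h at 37° C, 5% CO2 to a 10-point, 3-fold DMSO dilution series (10 mM top stock), in duplicate. Phospho-ERK was read by AlphaLISA SureFire Ultra or by In-Cell Western with DRAQ5 DNA stain, and IC50 came from a 4-parameter sigmoidal fit.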

[9] = target: NRAS WT binding to BRAF RBD (Homo sapiens (Human), UniProt P01111+P62937); assay: Ras-Raf disruption/FRET/MOA assay, NRAS WT; type: biochemical
NRAS WT binding to BRAF RBD, sequence (P01111 whole entry): as the sequence (P01111 whole entry Q61R) above, with R61Q counted along it
NRAS WT binding to BRAF RBD, sequence (P62937 whole entry): as the sequence (P62937 whole entry) above
In short: as §4

[10] = target: NRAS G12C binding to BRAF RBD (Homo sapiens (Human), UniProt P01111+P62937, G12C); assay: Ras-Raf disruption/FRET/MOA assay, NRAS G12C; type: biochemical
NRAS G12C binding to BRAF RBD, sequence (P01111 whole entry G12C): as the sequence (P01111 whole entry Q61R) above, with G12C, R61Q counted along it
NRAS G12C binding to BRAF RBD, sequence (P62937 whole entry): as the sequence (P62937 whole entry) above
In short: as §5

[11] = target: KRAS Q61H binding to BRAF RBD (Homo sapiens (Human), UniProt P01116+P62937, Q61H); assay: Ras-Raf disruption/FRET/MOA assay, KRAS Q61H; type: biochemical
KRAS Q61H binding to BRAF RBD, sequence (P01116 other isoform, or with tags, fused parts or gaps Q61H): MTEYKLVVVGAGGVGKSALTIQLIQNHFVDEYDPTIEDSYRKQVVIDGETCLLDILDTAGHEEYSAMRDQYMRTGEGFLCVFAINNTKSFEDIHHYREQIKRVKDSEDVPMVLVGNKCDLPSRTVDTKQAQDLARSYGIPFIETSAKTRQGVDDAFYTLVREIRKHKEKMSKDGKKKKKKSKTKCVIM
KRAS Q61H binding to BRAF RBD, sequence (P62937 whole entry): as the sequence (P62937 whole entry) above
In short: as §4

KRAS WT binding to BRAF RBD, sequence (P01116 other isoform, or with tags, fused parts or gaps): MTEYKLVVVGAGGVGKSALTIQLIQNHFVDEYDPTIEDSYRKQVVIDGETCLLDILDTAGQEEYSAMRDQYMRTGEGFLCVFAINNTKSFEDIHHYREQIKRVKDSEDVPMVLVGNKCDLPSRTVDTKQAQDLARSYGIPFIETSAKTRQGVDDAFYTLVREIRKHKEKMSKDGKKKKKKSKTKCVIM
KRAS WT binding to BRAF RBD, sequence (P62937 whole entry, the tested form may be a part): as the sequence (P62937 whole entry) above

C=CC(=O)N(C)CC1CCN(C(=O)N(C)[C@H](C(=O)N[C@H]2Cc3nc(cs3)-c3ccc4c(c3)c(c(-c3cccnc3[C@H](C)OC)n4CC)CC(C)(C)COC(=O)[C@@H]3CCCN(N3)C2=O)C(C)C)CC1 (atropisomer, axis not shown) [Compound A629]
IC50 [1]: 10 to 100 nM | IC50 [2]: 10 to 100 nM | IC50 [3]: 10 to 100 nM | IC50 [4]: 10 to 100 nM | IC50 (NCI-H358 (K-Ras G12C)): < 10 nM | IC50 [5]: 100 to 1000 nM | IC50 [6]: 10 to 100 nM | IC50 [7]: 10 to 100 nM | EC50 [8]: < 5000 nM | IC50 [9]: 10 to 100 nM | IC50 [10]: 10 to 100 nM | IC50 [11]: 10 to 100 nM
